In patent publication US20220348571A1, “DIHYDROPYRIMIDINE DERIVATIVES AND USES THEREOF IN THE TREATMENT OF HBV INFECTION OR OF HBV-INDUCED DISEASES” (Janssen Sciences Ireland Unlimited Company, priority 2018, published 2022):
Where a name gives a salt, the structure may show the parent alone. Read-outs that look alike come from different tables or passages of the source.

Key:
Assay type in all cases: cell-based
[1] = test system: HBV; assay: Anti-viral assay in HepG2.2.15 cells: HBV inhibitory activity (HBV DNA in culture medium by q-PCR); settings: Hepatitis B virus, HepG2.2.15, 144 h
From the text: (§1) Example 2: Anti-Viral Assay in HepG2.2.15 Cells
(§2) 1.1. Cell line • HepG2.2.15 (the HepG2.2.15 cell line can be produced by transfection of the HepG2 cell line as described in Sells, Chen, and Acs 1987 (Proc. Natl. Acad. Sci. USA 84:1005-1009), and the HepG2 cell line is available from ATCC® under number HB-8065™).
(§3) Seed the cell HepG2.2.15 cells into 96-well plate in 2% FBS culture medium at the density of 40,000 cells/well and 5,000 cells/well for HBV inhibitory activity and cytotoxicity determination, respectively. After seeding, incubate the cell plates at 37° C., 5% CO2 overnight. The next day, medium containing compounds is added to the cell to treat the cells for 6 days with medium refreshed once in the middle of the treatment. 8 dose points with 3 folds dilution of each compound were adopted and the highest concentration of the compounds is 10 uM and 100 uM for HBV inhibitory activity and cytotoxicity determination, respectively.
The HBV DAN change in the cell culture medium induced by the compounds is measured by q-PCR method. Briefly, the HBV DNA in the culture medium is extracted using QIAamp 96 DNA Blood Kit according to the manual and then quantified by q-PCR using the primers and probe in the table below.
(§4) 2.2. DATA Analysis EC50 and CC50 values are calculated by the GRAPHPAD PRISM software.

[2] = Cytotoxicity determination in HepG2.2.15 cells (CCK-8); settings: human, 6 days treatment, CCK-8, highest concentration 100 uM
From the text: as §1, §2, §3
(§5) After 6 days of compounds treatment, add 20 μl CCK-8 reagents to each well of cytotoxicity assay plates, incubate the plate at 37° C., 5% CO2 for 2.5 h and measure the absorbance at 450 nm wavelength, at the same time read the absorbance at 630 nm wavelength as reference.
as §4

[3] = test system: HepG2.2.15 cells; assay: as above; settings: 6 days treatment, CCK-8, highest concentration 100 uM
From the text: as §1, §2, §3, §5, §4

[4] = HepG2.2.15 cells, 6 days treatment, HBV DNA in culture medium by q-PCR, highest concentration 10 uM, read-out: EC50

SMILES | EC50 [1, 4] [nM] | CC50 at 6 days [2] [µM] | CC50 [3] [µM] | EC50 [1] [nM]
CCOC(=O)C1=C([C@H]2CC[C@@H](n3nccc3C(=O)O)CC2)NC(c2nccs2)=NC1c1ccc(F)c(F)c1Cl (single isomer, unassigned) [Compound I-39-B, (cis)-1-(4-(6-(2-Chloro-3,4-difluorophenyl)-5-(ethoxycarbonyl)-2-(thiazol-2-yl)-3,6-dihydropyrimidin-4-yl)cyclohexyl)-1H-pyrazole-5-carboxylic acid] | 82 |  |  | 
COC(=O)C1=C(C2CCN(c3ncc(C)c(C(=O)O)n3)CC2)NC(c2nccs2)=NC1c1cccc(F)c1C (single isomer, unassigned) [II-5-B] | 49 | 25.8 |  | 
CCOC(=O)C1=C(C2CCN(c3nc(C)c(C(=O)O)o3)CC2)NC(c2nccs2)=NC1c1ccc(F)c(F)c1Cl (single isomer, unassigned) [II-64-B, Lithium 2-(4-(6-(2-chloro-3,4-difluorophenyl)-5-(ethoxycarbonyl)-2-(thiazol-2-yl)-3,6-dihydropyrimidin-4-yl)piperidin-1-yl)-4-methyloxazole-5-carboxylate] |  |  | 6.84 | 75
CCOC(=O)C1=C(C2CCN(c3ncc(C(=O)O)c(OC)n3)CC2)NC(c2nccs2)=NC1c1ccc(F)c(F)c1Cl (single isomer, unassigned) [II-72-B, 2-(4-(6-(2-Chloro-3,4-difluorophenyl)-5-(ethoxycarbonyl)-2-(thiazol-2-yl)-3,6-dihydropyrimidin-4-yl)piperidin-1-yl)-4-methoxypyrimidine-5-carboxylic acid] | 62 | 5.59 |  | 
CCOC(=O)C1=C(C2CCN(c3cnc(C(=O)O)s3)CC2)NC(c2nccs2)=NC1c1ccc(F)c(F)c1Cl (single isomer, unassigned) [II-76-B, 5-(4-(6-(2-Chloro-3,4-difluorophenyl)-5-(ethoxycarbonyl)-2-(thiazol-2-yl)-3,6-dihydropyrimidin-4-yl)piperidin-1-yl)thiazole-2-carboxylate lithium salt] |  |  | 6.68 | 90
CCOC(=O)Cc1coc([C@H]2CC[C@H](C3=C(C(=O)OCC)C(c4ccc(F)c(F)c4Cl)N=C(c4nccs4)N3)CC2)n1 (single isomer, unassigned) [VII-23-Y, (trans)-Ethyl 4-(2-chloro-3,4-difluorophenyl)-(4-(4-(2-ethoxy-2-oxoethyl)oxazol-2-yl)cyclohexyl)-2-(thiazol-2-yl)-1,4-dihydropyrimidine-5-carboxylate] |  | 8.18 |  | 
